According to patent US20090005390A1, “NOVEL QUINUCLIDINE DERIVATIVES AND THEIR USE” (N[…]/S, priority 2002, published 2009):

Experiments:
[1] = target: T1, α7-subtype of nicotinic receptors (Rattus norvegicus, UniProt Q05941); assay: In vitro inhibition of 3H-α-bungarotoxine binding in rat brain; details: rat cerebral cortex homogenate; 3H-α-bungarotoxine 2 nM; 2 hours at 37° C.
T1 construct: Cerebral cortices from male Wistar rats (150-250 g) are homogenised; from tissue; host or cells: rat cerebral cortex membrane homogenate
T1 sequence (Q05941 23-502): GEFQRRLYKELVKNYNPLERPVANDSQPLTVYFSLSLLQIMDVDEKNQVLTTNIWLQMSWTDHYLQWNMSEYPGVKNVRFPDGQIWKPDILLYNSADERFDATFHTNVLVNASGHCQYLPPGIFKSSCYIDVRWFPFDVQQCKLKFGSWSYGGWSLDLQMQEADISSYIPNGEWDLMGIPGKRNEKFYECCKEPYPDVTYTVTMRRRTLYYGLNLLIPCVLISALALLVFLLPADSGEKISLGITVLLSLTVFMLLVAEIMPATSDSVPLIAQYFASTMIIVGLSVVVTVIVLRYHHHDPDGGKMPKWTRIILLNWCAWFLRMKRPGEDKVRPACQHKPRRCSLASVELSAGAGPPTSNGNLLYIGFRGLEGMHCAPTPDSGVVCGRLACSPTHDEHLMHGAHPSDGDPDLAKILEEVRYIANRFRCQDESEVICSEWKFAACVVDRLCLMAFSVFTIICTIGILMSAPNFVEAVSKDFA

SMILES	melting point [°C]	IC50 [1] [nM]
O=C(O)/C=C/C(=O)O.c1ccc2cc(OC3CN4CCC3CC4)ccc2c1 (racemic)	140.9 to 141.6	
O=C(O)/C=C/C(=O)O.c1ccc(-c2ccccc2OC2CN3CCC2CC3)cc1 (racemic)	125.4	
O=C(O)/C=C/C(=O)O.c1cnc2ccc(OC3CN4CCC3CC4)cc2c1 (racemic)	146 to 147	
O=C(O)/C=C/C(=O)O.c1cc2c(cc1OC1CN3CCC1CC3)CCC2 (racemic)	149.3 to 150.5	
O=C(O)/C=C/C(=O)O.c1cc2c(cc1OC1CN3CCC1CC3)CCCC2 (racemic)	109.7 to 111.3	
O=C(O)/C=C/C(=O)O.c1ccc2nc(OC3CN4CCC3CC4)ccc2c1 (racemic)	160 to 160.5	
Brc1cnc(OC2CN3CCC2CC3)s1.O=C(O)/C=C/C(=O)O (racemic)	157.8 to 162.1	
O=C(O)/C=C/C(=O)O.c1ccc2c(OC3CN4CCC3CC4)nsc2c1 (racemic)	172.3 to 173.6	
Brc1ccc(OC2CN3CCC2CC3)nn1.O=C(O)/C=C/C(=O)O (racemic)	152.8	
Clc1ccc(OC2CN3CCC2CC3)nn1.O=C(O)/C=C/C(=O)O (racemic)	164 to 164.5	
COc1nc2ccccc2nc1OC1CN2CCC1CC2.O=C(O)/C=C/C(=O)O (racemic)	168.5 to 170	
Clc1nc2ccccc2nc1OC1CN2CCC1CC2.O=C(O)/C=C/C(=O)O (racemic)	120.8 to 122.1	
Cn1c(OC2CN3CCC2CC3)nc2ccccc21.O=C(O)/C=C/C(=O)O (racemic)	184.9 to 185.9	
O=C(O)/C=C/C(=O)O.c1ccc2oc(OC3CN4CCC3CC4)nc2c1 (racemic)	187.2 to 188.8	
O=C(O)/C=C/C(=O)O.c1ccc2nc(OC3CN4CCC3CC4)cnc2c1 (racemic)	127.7 to 128.5	
O=C(O)/C=C/C(=O)O.c1ccc(-c2ccc(OC3CN4CCC3CC4)nn2)cc1 (racemic)	168.5 to 172	
O=C(O)/C=C/C(=O)O.c1ccc(-c2nnc(OC3CN4CCC3CC4)s2)cc1 (racemic)	168.5 to 172	
C.I.c1ccc2nc(OC3CN4CCC3CC4)cnc2c1 (racemic)	229 to 230	

SMILES	melting point [°C]	IC50 [1] [nM]
C.I.c1ccc2nc(OC3CN4CCC3CC4)ccc2c1 (racemic)	156.6 to 175.2	
C.I.c1ccc2c(OC3CN4CCC3CC4)nsc2c1 (racemic)	180.1 to 186.4	
O=C(O)/C=C/C(=O)O.c1cc(-c2ccc(OC3CN4CCC3CC4)nn2)co1 (racemic)	224.8 to 225.4	
O=C(O)/C=C/C(=O)O.c1cncc(-c2ccc(OC3CN4CCC3CC4)nn2)c1 (racemic)	137.2 to 143.2	
Fc1ccc(-c2cnc(OC3CN4CCC3CC4)s2)c(F)c1.O=C(O)/C=C/C(=O)O (racemic)	84.3 to 86.3	
O=C(O)/C=C/C(=O)O.c1coc(-c2ccc(OC3CN4CCC3CC4)nn2)c1 (racemic)	175.8 to 178.2	
O=C(O)/C=C/C(=O)O.c1ccc(-c2ccc(OC3CN4CCC3CC4)cc2)cc1 (racemic) [Compound A2, (±)-3-(4-Phenylphenyloxy)-1-aza-bicyclo[2.2.2]octane fumaric acid salt]	173.5 to 185.1	160
Clc1ccc2nc(OC3CN4CCC3CC4)sc2c1.O=C(O)/C=C/C(=O)O (racemic) [Compound B2, (±)-3-(6-Chloro-benzothiazol-2-yloxy)-1-aza-bicyclo[2.2.2]octane fumaric acid salt]	203 to 205	180
O=C(O)/C=C/C(=O)O.c1ccc2sc(OC3CN4CCC3CC4)nc2c1 (racemic) [Compound B3, (±)-3-(Benzothiazol-2-yloxy)-1-aza-bicyclo[2.2.2]octane fumaric acid salt]	173.7 to 174.2	170
O=C(O)/C=C/C(=O)O.c1cc(-c2nnc(OC3CN4CCC3CC4)s2)cs1 (racemic) [Compound B17, (±)-3-[5-(3-Thienyl)-1,3,4-thiadiazol-2-yloxy]-1-aza-bicyclo[2.2.2]octane fumaric acid salt]	186 to 188	150
O=C(O)/C=C/C(=O)O.c1ccc(-c2cnc(OC3CN4CCC3CC4)s2)cc1 (racemic) [Compound D1, (±)-3-(5-Phenyl-thiazol-2-yloxy)-1-aza-bicyclo[2.2.2]octane fumaric acid salt]	170.9 to 172.2	52
O=C(O)/C=C/C(=O)O.c1cc(-c2cnc(OC3CN4CCC3CC4)s2)cs1 (racemic) [Compound D3, (±)-3-[5-(3-Thienyl)-thiazol-2-yloxy]-1-aza-bicyclo[2.2.2]octane fumaric acid salt]	68.5 to 74.3	110
O=C(O)/C=C/C(=O)O.c1csc(-c2cnc(OC3CN4CCC3CC4)s2)c1 (racemic) [Compound D4, (±)-3-[5-(2-Thienyl)-thiazol-2-yloxy]-1-aza-bicyclo[2.2.2]octane fumaric acid salt]	152.6 to 154.9	20
O=C(O)/C=C/C(=O)O.c1cc(-c2cnc(OC3CN4CCC3CC4)s2)co1 (racemic) [Compound D5, (±)-3-[5-(3-Furanyl)-thiazol-2-yloxy]-1-aza-bicyclo[2.2.2]octane fumaric acid salt]	127.6 to 136.2	48
O=C(O)/C=C/C(=O)O.c1cncc(-c2cnc(OC3CN4CCC3CC4)s2)c1 (racemic) [Compound D6, (±)-3-[5-(3-Pyridyl)-thiazol-2-yloxy]-1-aza-bicyclo[2.2.2]octane fumaric acid salt]	82.7 to 86	180
O=C(O)/C=C/C(=O)O.c1cc(-c2ccc(OC3CN4CCC3CC4)nn2)cs1 (racemic) [Compound D7, (±)-3-[6-(3-Thienyl)-pyridazin-3-yloxy]-1-aza-bicyclo[2.2.2]octane fumaric acid salt]	197.9	130
O=C(O)/C=C/C(=O)O.c1csc(-c2ccc(OC3CN4CCC3CC4)nn2)c1 (racemic) [Compound D8, (±)-3-[6-(2-Thienyl)-pyridazin-3-yloxy]-1-aza-bicyclo[2.2.2]octane fumaric acid salt]	180.3 to 191.1	53
